In patent US9278978B2, “6-Alkynyl Pyridine” (Boehringer Ingelheim International GmbH, priority 2013, dated 2016) one finds IC50 data, which are given here for ten molecules.

The target of one test is cIAP1 BIR3 (Homo sapiens (Human), UniProt Q13490). The test can be described thus: cIAP1 BIR3 binding assay (DELFIA), BIR3 domain-SMAC peptide interaction.
Conditions: not given
As for the experimental part:
XIAP BIR3 and cIAP1 BIR3 Binding Assays (DELFIA)
Peptide […]-Lys(Biotin), representing the N-terminus of mature human SMAC(SMAC peptide), was used as interaction partner in the protein-peptide interaction assay.
BIR3 domains (10 nM) were incubated with SMAC peptide (10 nM) in assay buffer (50 mM Tris, 120 mM NaCl, 0.1% BSA, 1 mM DTT, 0.05% TritonX100) for one hour at room temperature in the presence of inhibitory compounds. The assay mixture was transferred to a strepatvidin coated plate and incubated for one hour at room temperature to allow binding of the biotinylated peptide and associated BIR3 domains to the plate. After several washing steps Eu labeled anti-GST antibody (e.g. Perkin Elmer DELFIA Eu-N1-antiGST AD0250) was added to detect BIR3 domain-SMAC peptide interactions according to Perkin Elmer's instructions. […] Time resolved Europium fluorescence was measured in a Wallac Victor using Standard assay settings.
DELFIA assay results were plotted against compound concentrations and Software GraphPad Prizm was used to calculate half maximal inhibitory concentrations (IC50 values).
The molecule `CNC(C)C(=O)Nc1cc(-c2ncnc3ncn(C)c23)cc(C#Cc2ccc3c(C)nccc3c2)n1` (stereo not shown) [Example 6, N-[4-(7-methyl-7H-purin-6-yl)-6-[2-(1-methylisoquinolin-6-yl)ethynyl]pyridin-2-yl]-2-(methylamino)propanamide] gave an IC50 of 1 nM.

The same test, now with this note: BIR3 domain 10 nM, SMAC peptide 10 nM; (S)-isomer (examples 1-34, 38-43) or racemate (examples 35-37); read-out: cIAP1 BIR-3 IC50.
With `CNC(C)C(=O)Nc1cc(-c2cccc3cnn(C)c23)c(OC)c(C#Cc2ccccc2)n1` (stereo not shown) [Example 26, N-[5-methoxy-4-(1-methyl-1H-indazol-7-yl)-6-(2-phenylethynyl)pyridin-2-yl]-2-(methylamino)propanamide], the IC50 was 12 nM.
On the same count and under the same terms, to `CNC(C)C(=O)Nc1cc(-c2nc(C)nc3c(C)nn(C)c23)cc(C#Cc2ccc3c(ccc(=O)n3C)c2)n1` (stereo not shown) [Example 15, N-{6-[2-(1-methyl-2-oxo-1,2-dihydroquinolin-6-yl)ethynyl]-4-{trimethyl-1H-pyrazolo[4,3-d]pyrimidin-7-yl}pyridin-2-yl}-2-(methylamino)propanamide] belongs 1 nM.
`CNC(C)C(=O)Nc1cc(-c2ncnc3c(C)nn(C)c23)cc(C#Cc2ccc3c(cnn3C)c2)n1` (stereo not shown) [Example 1, N-(4-{1,3-dimethyl-1H-pyrazolo[4,3-d]pyrimidin-7-yl}-6-[2-(1-methyl-1H-indazol-5-yl)ethynyl]pyridin-2-yl)-2-(methylamino)propanamide]: the IC50 was 1 nM.
Regarding `CNC(C)C(=O)Nc1cc(-c2ccncc2)cc(C#Cc2ccccc2)n1` (stereo not shown) [Example 28, 2-(methylamino)-N-[6-(2-phenylethynyl)-4-(pyridin-4-yl)pyridin-2-yl]propanamide], the IC50 was 282 nM.
`CNC(C)C(=O)Nc1cc(-c2cccc3ncccc23)c(OC)c(C#Cc2ccccc2)n1` (stereo not shown) [Example 27, N-[5-methoxy-6-(2-phenylethynyl)-4-(quinolin-5-yl)pyridin-2-yl]-2-(methyl-amino)propanamide]: the IC50 is 136 nM.
In the case of `CNC(C)C(=O)Nc1cc(-c2c(OC)ccc3nc(C)ccc23)cc(C#Cc2ccccc2)n1` (stereo not shown) [Example 5, N-[4-(6-methoxy-2-methylquinolin-5-yl)-6-(2-phenylethynyl)pyridin-2-yl]-2-(methylamino)propanamide], the IC50 amounted to 59 nM.
Take `CNC(C)C(=O)Nc1cc(-c2cccnc2)c(-c2cncnc2)c(C#Cc2ccccc2)n1` (racemic) [Example 36, 2-(methylamino)-N-[6-(2-phenylethynyl)-4-(pyridin-3-yl)-5-(pyrimidin-5-yl)-pyridin-2-yl]propanamide]: the IC50 was found to be 172 nM.
For `CNC(C)C(=O)Nc1cc(-c2cccnc2)cc(C#Cc2ccccc2)n1` (stereo not shown) [Example 34, 2-(methylamino)-N-[6-(2-phenyethynyl)-4-(pyridin-3-yl)pyridin-2-yl]propanamide], the IC50 stood at 250 nM.
Still for that read-out and setting: the figure for `CNC(C)C(=O)Nc1cc(-c2ncnc3c(C)nn(C)c23)cc(C#Cc2cc(C)nc(C)c2)n1` (stereo not shown) [Example 39, N-(4-{1,3-dimethyl-1H-pyrazolo[4,3-d]pyrimidin-7-yl}-6-[2-(2,6-dimethyl-pyridin-4-yl)ethynyl]pyridin-2-yl)-2-(methylamino)-propanamide] is 1 nM.
